What was measured:
Full-length human PIM-1 = biological target: T1, Full-length human PIM-1 (Homo sapiens, UniProt P11309); experiment: Biochemical assay for inhibitors of PIM-1 kinase activity (trans-phosphorylation, Dowex resin, 33P-ATP); settings: ATP 200 μM, enzyme 1 nM, Aktide 25 μM
T1 construct: Full-length human PIM-1 was expressed and purified; made in house
Method: Biochemical assay for inhibitors of PIM-1 kinase activity
The inhibitory activity of putative kinase inhibitors and the potency of selected compounds were determined using a trans-phosphorylation assay.
Specific peptide or protein substrates are trans-phosphorylated by their specific ser-thr or tyr kinase in the presence of ATP traced with ^33P-γ-ATP, and in the presence of their own optimal buffer and cofactors.
At the end of the phosphorylation reaction, more than 98% unlabeled ATP and radioactive ATP is captured by an excess of the ion exchange Dowex® resin; the resin then settles down to the bottom of the reaction plate by gravity.
Supernatant is subsequently withdrawn and transferred into a counting plate, then evaluated by β-counting.
The buffer for PIM-1 assay was composed of HEPES 50 mM, at pH 7.5, with 10 mM MgCl2, 1 mM DTT, 3 μM NaVO3, and 0.2 mg/ml BSA
Full-length human PIM-1 was expressed and purified as described in Bullock A N, et al., J. Biol. Chem. 2005, 280, 41675-82.
1.7 μM PIM1 was incubated 1 hour RT at 28° C. in the presence of 125 μM ATP
ATP concentration: 200 μM
Enzyme concentration: 1 nM
Substrate concentration Aktide (Chemical Abstract Service Registry Number 324029-01-8): 25 μM
The test mix consisted of:
1) 3× Enzyme mix (done in Kinase Buffer 3×), 5 μL/well
2) 3× substrate and ATP mix (done in ddH2O), together with ^33P-γ-ATP, 5 μL/well
3) 3× test compounds (diluted into ddH2O—3% DMSO)-5 μL/well
For IC50 determination, test compounds are received as a 1 mM solution in 100% DMSO and distributed into 96-well plates: compounds are then plated into the first column of a new 96-well plate (A1 to G1), 100 μl/well.
An automated station (Biomek FX®, Beckman) is used for serial dilutions, producing 1:3 dilutions in 100% DMSO, from line A1 to A10, for all the compounds in the column. Moreover, 4-5 copies of daughter plates are prepared by reformatting 5 μL of this first set of 100% DMSO dilution plates into 384-deep well plates: one copy of these serial dilution plates with the test compounds is thawed on the day of study, reconstituted at the working concentration (3-fold the final concentration) with 162 μL/well of water and used for IC50 determination assays. In a standard experiment, the highest concentration (3×) of compounds is typically 30 μM, while the lowest one is typically 1.5 nM.
Each 384-well plate generates at least one curve of the standard inhibitor staurosporine and reference wells (total enzyme activity vs. no enzymatic activity) for evaluation of Z′ and signal to background (S/B) ratio.
384-well plates, V bottom (test plates) are prepared with 5 μl of compound diluted as previously described (3×) and then placed onto a PlateTrak® 12 robotized station (Perkin Elmer; the robot has one 384-tip pipetting head for assay start, plus one 96-tip head for dispensing resin) together with one reservoir for Enzyme mix (3×) and one for ATP mix (3×).
Data are analyzed by an internally customized version of the “Assay Explorer®” SW package, which provides sigmoidal fitting of the ten-dilution curves for IC50 determination in secondary assay/hit confirmation routines.

Full-length human PIM-2 = biological target: T2, Full-length human PIM-2 (Homo sapiens, UniProt Q9P1W9); experiment: PIM-2 kinase inhibition assay: Dowex technique; type: biochemical; settings: ATP 4 μM, enzyme 1.5 nM, Aktide 5 μM
T2 construct: Full-length human PIM-2 was expressed and purified; made in house
Method: Method for PIM-2 Kinase Inhibition Assay: Dowex Technique
The buffer for PIM-2 assay was composed of HEPES 50 mM, at pH 7.5, with 1 mM MgCl2, 1 mM DTT, 3 μM Na3VO4, and 0.2 mg/ml BSA
Full-length human PIM-2 was expressed and purified as described in Fedorov O, et al. (2007) PNAS 104, 51, 20523-28.
Assay Conditions (Final Concentrations):
Enzyme concentration=1.5 nM
Aktide substrate (Chemical Abstract Service Registry Number 324029-01-8)=5 μM
See above: same procedure as described for PIM-1.

[1] = tested on: MV-4-11 (biphenotypic B myelomonocytic leukemia) cells; experiment: In vitro cell proliferation assay (CellTiter-Glo); type: cell-based; settings: Homo sapiens, MV4-11, antiproliferative activity, 72 hours
Method: In Vitro Cell Proliferation Assay:
MV-4-11 (biphenotypic B myelomonocytic leukemia) cells (1250 cells/well) were seeded in white 384 well-plates in complete medium (RPMI 1640 or EMEM plus 10% Fetal bovine serum) and treated with compounds dissolved in 0.1% DMSO, 24 h after seeding. The cells were incubated at 37° C. and 5% CO2 and after 72 hours the plates were processed using CellTiter-Glo® assay (Promega) following the manufacturer's instruction. CellTiter-Glo® is a homogenous method based on the quantification of the ATP present, an indicator of metabolically active cells. ATP is quantified using a system based on luciferase and D-luciferin resulting into light generation. The luminescent signal is proportional to the number of cells present in culture.
Briefly 25 μl/well reagent solution was added to each wells and after 5 minutes shacking microplates were red by Envision® (PerkinElmer) luminometer. The luminescent signal was proportional to the number of cells present in culture.
Inhibitory activity was evaluated comparing treated versus control data using Assay Explorer (MDL) program. IC50 was calculated using sigmoidal interpolation curve.

T2 sequence (Q9P1W9 whole entry): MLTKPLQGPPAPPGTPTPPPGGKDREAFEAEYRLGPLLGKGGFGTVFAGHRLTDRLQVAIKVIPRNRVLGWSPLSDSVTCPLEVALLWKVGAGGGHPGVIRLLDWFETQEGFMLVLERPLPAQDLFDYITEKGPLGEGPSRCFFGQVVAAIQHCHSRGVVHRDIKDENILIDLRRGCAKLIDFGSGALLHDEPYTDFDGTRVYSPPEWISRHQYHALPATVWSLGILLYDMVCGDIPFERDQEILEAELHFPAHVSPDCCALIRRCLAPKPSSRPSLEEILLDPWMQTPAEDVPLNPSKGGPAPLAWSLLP
T1 sequence (P11309 whole entry): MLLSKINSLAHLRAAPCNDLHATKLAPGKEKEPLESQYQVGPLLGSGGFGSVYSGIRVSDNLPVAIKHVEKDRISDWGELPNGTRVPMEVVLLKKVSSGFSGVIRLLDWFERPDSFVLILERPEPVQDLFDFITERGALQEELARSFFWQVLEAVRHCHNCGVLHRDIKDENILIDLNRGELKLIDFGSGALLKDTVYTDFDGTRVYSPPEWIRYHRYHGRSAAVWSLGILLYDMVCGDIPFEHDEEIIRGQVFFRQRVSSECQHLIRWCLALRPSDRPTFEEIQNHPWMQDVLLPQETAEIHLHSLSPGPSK

Compound	IC50 (Full-length human PIM-1)	IC50 (Full-length human PIM-2)	IC50 [1]
CNC(=O)c1nn(C(C)(C)C)c2c1ccc1cnc(SC)nc12 [Compound 7, 1-tert-butyl-N-methyl-8-(methylsulfanyl)-1H-pyrazolo[4,3-h]quinazoline-3-carboxamide]	41 nM	156 nM	1760 nM
COc1ncc2ccc3c(C(N)=O)nn(C4CCNCC4)c3c2n1 [Compound 97, 8-methoxy-1-(piperidin-4-yl)-1H-pyrazolo[4,3-h]quinazoline-3-carboxamide]	154 nM	271 nM	294 nM
CSc1ncc2ccc3c(C(N)=O)nn(C(C)CCN)c3c2n1 (centres unmarked) [Compound 102, 1-(4-aminobutan-2-yl)-8-(methylsulfanyl)-1H-pyrazolo[4,3-h]quinazoline-3-carboxamide]	1 nM	1 nM	35 nM
CSc1ncc2ccc3c(C(N)=O)nn([C@H]4C[C@H](CO)C4)c3c2n1 [Compound 105, 1-[trans-3-(hydroxymethyl)cyclobutyl]-8-(methylsulfanyl)-1H-pyrazolo[4,3-h]quinazoline-3-carboxamide]	3 nM	14 nM	16.8 nM
Cn1nc(C(N)=O)c2c1-c1nc(N3CCCCC3)ncc1CC2 [Ref. Compound 1, 1-methyl-8-(piperidin-1-yl)-4,5-dihydro-1H-pyrazolo[4,3-h]quinazoline-3-carboxamide, reference compound]	> 10000 nM	> 10000 nM	–
CN1CCN(c2ccc(Oc3ncc4ccc5c(C(N)=O)nn(C)c5c4n3)c(F)c2)CC1 [Compound 36, 8-[2-fluoro-4-(4-methylpiperazin-1-yl)phenoxy]-1-methyl-1H-pyrazolo[4,3-h]quinazoline-3-carboxamide]	116 nM	694 nM	940 nM
CSc1ncc2ccc3c(C(N)=O)nn(C4CCOCC4)c3c2n1 [Compound 104, 8-(methylsulfanyl)-1-(tetrahydro-2H-pyran-4-yl)-1H-pyrazolo[4,3-h]quinazoline-3-carboxamide]	14 nM	35 nM	185 nM
CSc1ncc2ccc3c(C(N)=O)nn(C4CN5CCC4CC5)c3c2n1 (centres unmarked) [Compound 103, 1-(1-azabicyclo[2.2.2]oct-3-yl)-8-(methylsulfanyl)-1H-pyrazolo[4,3-h]quinazoline-3-carboxamide]	15 nM	28 nM	221 nM
CSc1ncc2ccc3c(C(N)=O)nn(CC4CCNCC4)c3c2n1 [Compound 17, 8-(methylsulfanyl)-1-(piperidin-4-ylmethyl)-1H-pyrazolo[4,3-h]quinazoline-3-carboxamide]	9 nM	160 nM	1540 nM
CSc1ncc2ccc3c(C(N)=O)nn(CC4CCCNC4)c3c2n1 (centres unmarked) [Compound 94, 8-(methylsulfanyl)-1-(piperidin-3-ylmethyl)-1H-pyrazolo[4,3-h]quinazoline-3-carboxamide]	80 nM	311 nM	534 nM
CN1CCN(c2ccc(Oc3ncc4ccc5c(C(N)=O)nn(C)c5c4n3)c(Br)c2)CC1 [Compound 29, 8-[2-bromo-4-(4-methylpiperazin-1-yl)phenoxy]-1-methyl-1H-pyrazolo[4,3-h]quinazoline-3-carboxamide]	21 nM	2400 nM	758 nM
CSc1ncc2ccc3c(C(N)=O)nn(C4CCNCC4)c3c2n1 [Compound 91, 8-(methylsulfanyl)-1-(piperidin-4-yl)-1H-pyrazolo[4,3-h]quinazoline-3-carboxamide]	19 nM	46 nM	1440 nM
CSc1ncc2ccc3c(C(N)=O)nn(C)c3c2n1 [Compound 87, 1-methyl-8-(methylsulfanyl)-1H-pyrazolo[4,3-h]quinazoline-3-carboxamide]	123 nM	888 nM	1940 nM
CSc1ncc2ccc3c(C(N)=O)nn(CCO)c3c2n1 [Compound 1, 1-(2-hydroxyethyl)-8-(methylsulfanyl)-1H-pyrazolo[4,3-h]quinazoline-3-carboxamide]	50 nM	221 nM	992 nM
CSc1ncc2c(n1)-c1c(c(C(N)=O)nn1C1CCNCC1)CC2 [Compound 72, 8-(methylsulfanyl)-1-(piperidin-4-yl)-4,5-dihydro-1H-pyrazolo[4,3-h]quinazoline-3-carboxamide]	270 nM	313 nM	1780 nM
CSc1ncc2ccc3c(C(N)=O)nn([C@H]4C[C@@H](CO)C4)c3c2n1 [Compound 106, 1-[cis-3-(hydroxymethyl)cyclobutyl]-8-(methylsulfanyl)-1H-pyrazolo[4,3-h]quinazoline-3-carboxamide]	3 nM	13 nM	21 nM
CN1CCN(c2ccc(Oc3ncc4c(n3)-c3c(c(C(N)=O)nn3C)CC4)cc2)CC1 [Compound 25, 1-methyl-8-[4-(4-methylpiperazin-1-yl)phenoxy]-4,5-dihydro-1H-pyrazolo[4,3-h]quinazoline-3-carboxamide]	776 nM	> 10000 nM	> 10000 nM
NC(=O)c1nn(C2CCC(N)CC2)c2c1ccc1cnc(-c3ccccc3)nc12 (centres unmarked) [Compound 111, 1-(4-aminocyclohexyl)-8-phenyl-1H-pyrazolo[4,3-h]quinazoline-3-carboxamide]	400 nM	210 nM	–
CSc1ncc2c(n1)-c1c(c(C(N)=O)nn1C)CC2 [Ref. Compound 2, 1-methyl-8-(methylsulfanyl)-4,5-dihydro-1H-pyrazolo[4,3-h]quinazoline-3-carboxamide, reference compound]	1010 nM	> 10000 nM	–
CN1CCN(c2ccc(Oc3ncc4ccc5c(C(N)=O)nn(CCO)c5c4n3)cc2)CC1 [Compound 46, 1-(2-hydroxyethyl)-8-[4-(4-methylpiperazin-1-yl)phenoxy]-1H-pyrazolo[4,3-h]quinazoline-3-carboxamide]	81 nM	1300 nM	673 nM
CSc1ncc2ccc3c(C(N)=O)nn(C4CCCNC4)c3c2n1 (centres unmarked) [Compound 92, 8-(methylsulfanyl)-1-(piperidin-3-yl)-1H-pyrazolo[4,3-h]quinazoline-3-carboxamide]	22 nM	21 nM	147 nM
CC(=O)c1cc(N2CCN(C)CC2)ccc1Oc1ncc2ccc3c(C(N)=O)nn(C)c3c2n1 [Compound 37, 8-[2-acetyl-4-(4-methylpiperazin-1-yl)phenoxy]-1-methyl-1H-pyrazolo[4,3-h]quinazoline-3-carboxamide]	4120 nM	> 1000 nM	–

Source: patent US8541576B2, “Substituted pyrazolo-quinazoline derivatives as kinase inhibitors” (Nerviano Medical Sciences SRL, priority 2010, dated 2013)
